The subject of data set [1] is RAS/MAPK pathway (pERK, pAKT, pS6, c-PARP) in human PDAC cell lines. The experiment in a line: Western blot of RAS pathway signaling, human PDAC cell lines. Type of data set: cell-based. On the procedure:
Cells were seeded at 7.5×10^5-4×10^6 cells per well in 6-well plates or 100 mm dishes in growth medium. After overnight incubation, indicated compound (RMC-7977, IAG933 or DMSO (0.1% v/v)) were added and incubated for the indicated time points. Cells were washed twice with ice-cold PBS and lysed with NP-40 lysis buffer (Thermo Fisher Scientific, J60766), MSD Tris Lysis Buffer (MSD, R60TX-2), RIPA buffer (50 mM TRIS-HCl, pH 7.5, 150 mM NaCl, 1% NP-40, 0.5% sodium deoxycholate, 0.1% SDS) or a lysis buffer containing 1% Triton X-100, 20 mM Tris-HCl, 150 mM NaCl, and 1 mM EDTA. All lysis buffers were supplemented with protease and phosphatase inhibitors. Lysates were scraped and collected before centrifugation at 21,000×g for 10 minutes at 4° C. The protein-containing supernatants were quantified by BCA assay (Pierce, 23225) and equal quantities of protein were denatured with LDS and reducing agent at 95° C. Samples were resolved on 12% or 4-12% Bis-Tris polyacrylamide gels, then transferred to a nitrocellulose or PVDF membrane using the iBlot 2.0 system or wet transfer. Membranes were blocked in Intercept TBS buffer (LiCor, 927-60001) or 3-5% milk before probing with primary antibodies overnight at 4° C. Secondary antibodies were added as appropriate, and the membranes were imaged on a LiCor Odyssey imager. Alternatively, membranes were incubated with HRP-linked secondary antibodies and developed with Clarity or ClarityMax chemiluminescent substrates using a ChemiDoc XRS+ or ChemiDoc™ MP imager (Bio-Rad).
For orientation: Immunoblotting shows a protein as a band on a membrane.

Data set [2] can be described thus: RMC-7977 levels in KPCY allograft tumor tissue. Type of data set: in vivo. The settings on record: C57Bl/6, mouse, oral, 10 mg/kg. On the procedure:
Body weights were measured twice a week during the study. Tissue was harvested either at 4 hours or 24 hours after last dose and preserved as previously described (See Xenograft studies section). Whole blood, tumor, colon and skin tissue concentrations of RMC-7977 were determined using liquid chromatography-tandem mass spectrometry (LC-MS/MS) methods. […] After thorough mixing and centrifugation, the supernatant was directly analyzed on a Sciex 6500+ triple quadrupole mass spectrometer equipped with an ACQUITY or Shimadzu UPLC system. An ACQUITY UPLC BEH C18 or C4 […] (2.1×50 mm) column was used with gradient elution for compound separation. RMC-7977 and IS (verapamil or terfenadine) were detected by positive electrospray ionization using multiple reaction monitoring (RMC-7977: m/z 865.4/706.4 or m/z 865.3/833.5; verapamil: m/z 455.2/164.9; terfenadine: m/z 472.3/436.4). […] BA analysis on blood and tissue samples from xenograft models was run at Wuxi AppTec. BA analysis on blood and tissue samples from allograft models and GEMM was run at Revolution Medicines.

The term half-life denotes the time in which the quantity being followed falls by half. Higher therefore signals slow loss. In the case of `CCn1c(-c2cc(N3CCN(C4CC4)CC3)cnc2[C@H](C)OC)c2c3cc(ccc31)-c1csc(n1)C[C@H](NC(=O)[C@H]1[C@@H]3COC[C@@H]31)C(=O)N1CCC[C@H](N1)C(=O)OCC(C)(C)C2` [RMC-7977], the “phosphorylation of ERK1/2 (pERK)” value in data set [1] (human PDAC cell lines, 1-100 nM) is “reduced phosphorylation”. Also, the “inhibition of PI3K effector signaling (pAKT, pS6S235/S236)” value in data set [1] (human cell lines) is on record as “more variable inhibition”. Also, the “duration of inhibition of pERK” value in data set [1] (human cell lines, 100 nM) is 48 hours. In data set [1] (human cell lines, later timepoints), the “apoptotic marker cleaved PARP (c-PARP)” value is listed as “induction”. The molecule further gave a half-life in data set [2] of 3.5 h.

The values are drawn from US12662707B2, “MYC amplification drives resistance to pan-RAS inhibitors in pancreatic cancer” (The Trustees of Columbia University in the City of New York, priority 2024, dated 2026).
